From ChEMBL document CHEMBL1201862, “PubChem BioAssay data set” (2004)
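Cells were grown in 96-well plates and exposed to each compound for 48 hours at five concentrations; endpoints were interpolated linearly between bracketing concentrations, or set to the highest concentration if not reached. At the GI50, growth is halved.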 Active and inactive are the calls of the source. No stated cut-off is given here; in the data, active = GI50 up to about 1.1 µM and inactive = higher.

Columns and labels:
Assay in all cases: inhibition of tumour cell growth, NCI panel, 48 h
CAKI-1 = test system: CAKI-1
HOP-62 = test system: HOP-62
COLO 205 = test system: COLO 205
KM12 = test system: KM12
EKVX = test system: EKVX
OVCAR-5 = test system: OVCAR-5
UACC-62 = test system: UACC-62
A498 = test system: A498
SR = test system: SR
UACC-257 = test system: UACC-257
HCC 2998 = test system: HCC 2998
PC-3 = test system: PC-3
HL-60 = test system: HL-60
SK-MEL-2 = test system: SK-MEL-2
OVCAR-4 = test system: OVCAR-4
A549 = test system: A549
MCF7 = test system: MCF7
SNB-75 = test system: SNB-75
TK-10 = test system: TK-10
CCRF-CEM = test system: CCRF-CEM

Row | SMILES | GI50 (CAKI-1) | GI50 (HOP-62) | GI50 (COLO 205) | GI50 (KM12) | GI50 (EKVX) | GI50 (OVCAR-5) | GI50 (UACC-62) | GI50 (A498) | GI50 (SR) | GI50 (UACC-257) | GI50 (HCC 2998) | GI50 (PC-3) | GI50 (HL-60) | GI50 (SK-MEL-2) | GI50 (OVCAR-4) | GI50 (A549) | GI50 (MCF7) | GI50 (SNB-75) | GI50 (TK-10) | GI50 (CCRF-CEM)
1 | COC(=O)c1ccccc1NCc1cc(O)ccc1O | 19.4 µM (inactive) | 28.6 µM (inactive) | 19.4 µM (inactive) | 17.5 µM (inactive) | 22 µM (inactive) | 29.4 µM (inactive) | 18.2 µM (inactive) | 34.3 µM (inactive) | > 10 µM (inactive) | 15.6 µM (inactive) | 23.4 µM (inactive) | 17 µM (inactive) | 8 µM (inactive) | 22.3 µM (inactive) | 17.9 µM (inactive) | 32.7 µM (inactive) | 17.6 µM (inactive) | 28.8 µM (inactive) | 26.1 µM (inactive) | 4.91 µM (inactive)
2 | O=C1NC2c3c(I)sc(I)c3/C(=N\O)C2O1 (stereo not given) | 32.7 µM (inactive) | 30.5 µM (inactive) | 20.8 µM (inactive) | 30.1 µM (inactive) | 10.9 µM (inactive) | 30.5 µM (inactive) | 20.7 µM (inactive) | 33.6 µM (inactive) | 29.9 µM (inactive) | 58.3 µM (inactive) | 35.1 µM (inactive) | 39.2 µM (inactive) | 20 µM (inactive) | 63.7 µM (inactive) | 26.1 µM (inactive) | 48.9 µM (inactive) | 33.8 µM (inactive) | 59.6 µM (inactive) | 48.5 µM (inactive) | 24.3 µM (inactive)
3 | C/C(=N\Nc1nc2cc(C(F)(F)F)ccc2s1)c1ccccn1 | 0.0537 µM (active) | 2.41 µM (inactive) | 0.0442 µM (active) | 0.526 µM (active) | 0.0431 µM (active) | 2.47 µM (inactive) | 0.303 µM (active) | 1.52 µM (inactive) | 0.0624 µM (active) | 0.452 µM (active) | 2.6 µM (inactive) | 1.67 µM (inactive) | 0.127 µM (active) | 0.594 µM (active) | 0.321 µM (active) | 0.593 µM (active) | 0.0753 µM (active) | 1.98 µM (inactive) | 2.52 µM (inactive) | 0.0853 µM (active)
4 | CNCCCn1c2ccccc2c2c3c(c(-c4ccsc4)cc21)C(=O)NC3=O | 0.519 µM (active) | 1.02 µM (active) | 1.39 µM (inactive) | 0.0174 µM (active) | 1.85 µM (inactive) | 1.5 µM (inactive) | 1.49 µM (inactive) | < 0.0104 µM (active) | < 0.01 µM (active) | 1.58 µM (inactive) | 2.67 µM (inactive) | 0.178 µM (active) | 2.22 µM (inactive) | 0.0181 µM (active) | 1.59 µM (inactive) | 1.17 µM (inactive) | 0.0984 µM (active) | 1.91 µM (inactive) | 1.35 µM (inactive) | 0.216 µM (active)
5 | O=C1C(c2c(O)[nH]c3ccccc23)=Nc2ccc(Br)cc21 | 56.2 µM (inactive) | 21.3 µM (inactive) | > 100 µM (inactive) | 17.1 µM (inactive) | 15.1 µM (inactive) | 49.3 µM (inactive) | 17.6 µM (inactive) | 4.39 µM (inactive) | 26.5 µM (inactive) | 58.6 µM (inactive) | 25.6 µM (inactive) | 14.8 µM (inactive) | 23.7 µM (inactive) | 29.8 µM (inactive) | 14.9 µM (inactive) | 27.2 µM (inactive) | 1.24 µM (inactive) | 14.6 µM (inactive) | 23 µM (inactive) | 21.2 µM (inactive)
6 | COc1ccc2c(c1)[nH]c1c(/C=C/c3ccccc3)nccc12 | 14.5 µM (inactive) | 15.7 µM (inactive) | 3.83 µM (inactive) | 14.1 µM (inactive) | 12.6 µM (inactive) | 14.9 µM (inactive) | 14.5 µM (inactive) | 12.3 µM (inactive) | 3.47 µM (inactive) | 16.1 µM (inactive) | 13 µM (inactive) | 16.1 µM (inactive) | 19.1 µM (inactive) | 16.2 µM (inactive) | 19.6 µM (inactive) | 14.9 µM (inactive) | 16 µM (inactive) | 12.3 µM (inactive) | 19.4 µM (inactive) | 17 µM (inactive)
7 | O=[N+]([O-])c1cc2c(c([N+](=O)[O-])c1)NCc1ccccc1O2 | 14.9 µM (inactive) | 30.8 µM (inactive) | > 100 µM (inactive) | > 100 µM (inactive) | > 100 µM (inactive) | > 100 µM (inactive) | > 100 µM (inactive) | > 100 µM (inactive) | 55.5 µM (inactive) | > 100 µM (inactive) | > 100 µM (inactive) | > 100 µM (inactive) | > 100 µM (inactive) | 76.6 µM (inactive) | 70.5 µM (inactive) | > 100 µM (inactive) | > 100 µM (inactive) | 12.9 µM (inactive) | > 100 µM (inactive) | 24.3 µM (inactive)
